US20110086836A1, “Substituted Phenylpiperidine Derivatives As Melanocortin-4 Receptor Modulators” (Santhera Pharmaceuticals (Schweiz) AG, priority 2006, published 2011)

Legend:
[1] = target: T1, human melanocortin-4 receptor (hMC-4R) (Homo sapiens, UniProt P32245); experiment: hMC-4R binding assay (fluorescence polarization, competition with fluorescence labeled NDP-alpha-MSH); conditions: HEK293 cell membrane preparations expressing human melanocortin receptors
T1 construct: expressed in transfected cells; host or cells: HEK293 (membrane preparations)
T1 sequence (P32245 whole entry): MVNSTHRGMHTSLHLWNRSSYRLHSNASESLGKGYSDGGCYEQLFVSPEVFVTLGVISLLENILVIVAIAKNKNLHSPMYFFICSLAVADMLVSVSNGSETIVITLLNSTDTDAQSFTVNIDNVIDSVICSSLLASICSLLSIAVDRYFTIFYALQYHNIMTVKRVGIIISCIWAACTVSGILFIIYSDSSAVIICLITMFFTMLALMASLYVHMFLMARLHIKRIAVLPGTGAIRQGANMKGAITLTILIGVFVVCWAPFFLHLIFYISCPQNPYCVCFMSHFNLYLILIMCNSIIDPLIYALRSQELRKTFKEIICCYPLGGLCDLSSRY
Procedure: The plate is incubated for 5 h at room temperature.
The degree of fluorescence polarization is determined with a fluorescence polarization microplate reader.

[2] = target: T1, human melanocortin-4 receptor (hMC-4R); experiment: hMC-4R functional assay (membrane based cAMP fluorescence polarization); type: biochemical; parameters: concentration or dose not given beside the values; conditions: cAMP produced compared to stimulation with NDP-alpha-MSH
Procedure: Agonistic activity of human melanocortin receptors is determined in a homogeneous membrane based assay.
Membrane preparations from HEK293 cells expressing the human melanocortin receptors are added. After a short preincubation period, an appropriate amount of ATP, GTP and the cAMP antibody is added and the plate is further incubated before the fluorescence labeled cAMP conjugate is dispensed. The plate is incubated for 2 h at 4° C. before it is read on a fluorescence polarization microplate reader.

| SMILES | IC50 [1] | % activation functional assay [2] |
| --- | --- | --- |
| O=C(N[C@H](Cc1ccc(Cl)cc1Cl)C(=O)N1CCC(c2ccccc2CCN2CCC(F)CC2)CC1)N1CCCC1 [Example 36] | 9.6 nM | 0% |
| O=C(N[C@H](Cc1ccc(Cl)cc1Cl)C(=O)N1CCC(c2ccccc2OCCN2CCCC2)CC1)N1CCCC1 [Example 2] | 3.7 nM | 0% |

Now from value to compound:

| IC50 [1] | % activation functional assay [2] | SMILES |
| --- | --- | --- |
| 4.4 nM | 0% | O=C(N[C@H](Cc1ccc(Cl)cc1Cl)C(=O)N1CCC(c2ccccc2OCCN2CCCC2)CC1)N1CCC(F)(F)C1 [Example 110] |
| 3 nM | 0% | CN(C)[C@H]1CCN(C(=O)N[C@H](Cc2ccc(Cl)cc2Cl)C(=O)N2CCC(c3ccccc3OCCN3CCCC3)CC2)C1 [Example 113] |
| 5.3 nM | 0% | O=C(N[C@H](Cc1ccc(Cl)cc1Cl)C(=O)N1CCC(c2ccccc2CCCN2CCCC2)CC1)N1CCOCC1 [Example 95] |
